Assay type in all cases: in vivo
Test [1] concerns Echinochloa crus-galli (ECHCG). Nature of the test: Pre-emergence Test (glasshouse, percentage damage to the plant). The settings on record: 1000 g/ha unless otherwise stated, Echinochloa crus-galli.
Test [2] has as its system Amaranthus palmeri (AMAPA). The test is described as above. The settings on record: 1000 g/ha unless otherwise stated, Amaranthus palmeri.
Test [3] concerns Amaranthus palmeri (AMAPA). Description: Post-emergence Test (glasshouse, percentage damage to the plant). The settings on record: post-emergence; 1000 g/ha unless otherwise stated; evaluated after 13 days. A digest of the protocol:
(§1)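 Seeds sown in pots in glasshouse (24/16 °C day/night, 14 h light, 65% humidity), then sprayed with compound at 1000 g/ha unless stated, from acetone/water 50:50 with 0.5% Tween 20. Damage assessed 13 days later on five-point scale (1=0–20% to 5=81–100%).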

Test [4] has as its system Echinochloa crus-galli (ECHCG). Described as above. The note with it: post-emergence; 1000 g/ha unless otherwise stated; evaluated after 13 days. A digest of the protocol: as §1
Test [5] has as its system Setaria faberi (SETFA). The test is described as above. The settings on record: post-emergence; 1000 g/ha unless otherwise stated; evaluated after 13 days. A digest of the protocol: (§2)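 Spray treatment of sown glasshouse pots at 1000 g/ha (default rate), vehicle acetone/water 50:50 plus 0.5% Tween 20. Read-out: percentage damage after 13 days, converted to a score where 5 denotes 81-100% and 1 denotes 0-20%.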

For test [6], the system named is Ipomoea hederacea (IPOHE). Described as above. The settings on record: post-emergence; 1000 g/ha unless otherwise stated; evaluated after 13 days. A digest of the protocol: as §2
The test system of test [7] is Zea mays (ZEAMX). The description is as above. The settings on record: post-emergence; 1000 g/ha unless otherwise stated; evaluated after 13 days. A digest of the protocol: as §2
Test [8] relates to Amaranthus retoflexus (AMARE). The test is described as above. The note with it: post-emergence; 1000 g/ha unless otherwise stated; evaluated after 13 days. In outline: as §1
The test system of test [9] is Setaria faberi (SETFA). Description: Pre-emergence Test (glasshouse, percentage damage to the plant). The note with it: 1000 g/ha unless otherwise stated, Setaria faberi.
The subject of test [10] is Zea mays (ZEAMX). Described as above. The settings on record: 1000 g/ha unless otherwise stated, Zea mays.
Test [11] deals with Amaranthus retoflexus (AMARE). Described as above. The note with it: 1000 g/ha unless otherwise stated, Amaranthus retoflexus.
Test [12] has as its system Ipomoea hederacea (IPOHE). The description is as above. The note with it: 1000 g/ha unless otherwise stated, Ipomoea hederacea.

SMILES strings stand for the structures.

On to `CCn1c(C)c(-c2ccc(Cl)cc2Cl)c(=O)c(C(=O)OC)c1-c1cnc(Cl)c(Cl)c1` [Compound 214, methyl 5-(2,4-dichlorophenyl)-2-(5,6-dichloro-3-pyridyl)-1-ethyl-6-methyl-4-oxo-pyridine-3-carboxylate], for which, in test [1], the “percentage damage to the plant, ECHCG (five-point scale)” value (“percentage damage to the plant, ECHCG” for short) is recorded as 0. For the same compound, the “percentage damage to the plant, AMAPA (five-point scale)” value (“percentage damage to the plant, AMAPA” below) in [2] is reported as 0. Moreover, the “AMAPA, percentage damage caused to the plant (five-point scale)” value (shortened to “AMAPA, percentage damage caused”) in test [3] was 2 (2=21-40%). The “ECHCG, percentage damage caused to the plant (five-point scale)” value (“ECHCG, percentage damage caused” for short) in test [4] came out at 0. Moreover, in test [5], the “SETFA, percentage damage caused to the plant (five-point scale)” value (“SETFA, percentage damage caused” below) is 1 (1=0-20%). Moreover, the “IPOHE, percentage damage caused to the plant (five-point scale)” value (shortened to “IPOHE, percentage damage caused”) in [6] is 0. The “ZEAMX, percentage damage caused to the plant (five-point scale)” value (“ZEAMX, percentage damage caused” for short) in [7] is recorded as 1 (1=0-20%). Besides, the “AMARE, percentage damage caused to the plant (five-point scale)” value (“AMARE, percentage damage caused” below) in test [8] is listed as 2 (2=21-40%). Besides, in test [9], the “percentage damage to the plant, SETFA (five-point scale)” value (shortened to “percentage damage to the plant, SETFA”) is given as 0. The “percentage damage to the plant, ZEAMX (five-point scale)” value (“percentage damage to the plant, ZEAMX” for short) in test [10] is 0. In addition, the “percentage damage to the plant, AMARE (five-point scale)” value (“percentage damage to the plant, AMARE” below) in test [11] is given as 0. Besides, the “percentage damage to the plant, IPOHE (five-point scale)” value (shortened to “percentage damage to the plant, IPOHE”) in test [12] amounted to 0.
Turning to `Cc1c(-c2ccc(Cl)cc2Cl)c(=O)c(C(=O)O)c(-c2ccc(Cl)c(Cl)c2)n1C` [Compound 251, 5-(2,4-dichlorophenyl)-2-(3,4-dichlorophenyl)-1,6-dimethyl-4-oxo-pyridine-3-carboxylic acid], the “percentage damage to the plant, ECHCG” value in [1] was 0. Besides, the “percentage damage to the plant, AMAPA” value in test [2] is 2 (2=21-40%). For the same compound, in test [3], the “AMAPA, percentage damage caused” value was 3 (3=41-60%). The “ECHCG, percentage damage caused” value in test [4] was 1 (1=0-20%). Moreover, the “SETFA, percentage damage caused” value in [5] was 0. Moreover, the “IPOHE, percentage damage caused” value in test [6] turned out to be 0. The “ZEAMX, percentage damage caused” value in test [7] was 1 (1=0-20%). The “AMARE, percentage damage caused” value in test [8] is recorded as 4 (4=61-80%). Further, in test [9], the “percentage damage to the plant, SETFA” value was 0. Also, the “percentage damage to the plant, ZEAMX” value in test [10] is listed as 0. Also, the “percentage damage to the plant, AMARE” value in test [11] was 1 (1=0-20%). Besides, the “percentage damage to the plant, IPOHE” value in test [12] was 0.
With `CCn1c(C)c(-c2ccc(Cl)cc2F)c(=O)c(C(=O)O)c1-c1cnc(Cl)c(Cl)c1` [Compound 242, 5-(4-chloro-2-fluoro-phenyl)-2-(5,6-dichloro-3-pyridyl)-1-ethyl-6-methyl-4-oxo-pyridine-3-carboxylic acid], the “percentage damage to the plant, ECHCG” value in test [1] was 5 (5=81-100%). In addition, the “percentage damage to the plant, AMAPA” value in test [2] is reported as 5 (5=81-100%). In addition, the “AMAPA, percentage damage caused” value in [3] is listed as 5 (5=81-100%). In addition, the “ECHCG, percentage damage caused” value in test [4] is given as 5 (5=81-100%). Further, in test [5], the “SETFA, percentage damage caused” value is 5 (5=81-100%). In test [6], the “IPOHE, percentage damage caused” value is listed as 4 (4=61-80%). Further, in test [7], the “ZEAMX, percentage damage caused” value is listed as 4 (4=61-80%). In addition, in test [8], the “AMARE, percentage damage caused” value was 5 (5=81-100%). The “percentage damage to the plant, SETFA” value in [9] is on record as 5 (5=81-100%). For the same compound, the “percentage damage to the plant, ZEAMX” value in test [10] is listed as 2 (2=21-40%). For the same compound, in [11], the “percentage damage to the plant, AMARE” value is 4 (4=61-80%). Further, in test [12], the “percentage damage to the plant, IPOHE” value was 4 (4=61-80%).
